Patent US8426649B2, “Cyclopropenones and the photochemical generation of cyclic alkynes therefrom” (University of Georgia Research Foundation, Inc., priority 2009, dated 2013)
Where two headings read alike, the source gives them in different places.

Key:
[1] = literature values (Baskin 2007; Ning/Boons 2008), cited from earlier work
Jurkat cells [2] = experiment: Cell surface labeling detected by fluorescence intensity of cell lysates (avidin-FITC); format: cell-based, Human; settings: for Incubation time at which labeling was reaching completion: time course
Procedure: Having established that light activation of cyclopropenones results in the clean formation of the corresponding dibenzocyclooctynes, which can undergo cycloadditions with azides (e.g., metal-free cycloadditions in preferred embodiments) to give corresponding triazoles, attention was focused on labeling living cell modified with azido groups. Thus, Jurkat cells were cultured in the presence of […] of peracetylated N-azidoacetylmannosamine (Ac4ManNAz) for 3 days to metabolically introduce N-azidoacetyl-sialic acid (SiaNAz) groups into glycoproteins and glycolipids. As a negative control, Jurkat cells were employed that were grown in the presence of peracetylated N-acetylmannosamine (Ac4ManNAc). The cells were exposed to 30 micromolar of compound 4b, 5b, and 6b for 1 hour at room temperature. In addition, cells and cyclopropenone 5b were exposed to light (350 nm) for 1 minute to form in-situ cyclooctyne 6b and then incubated for 1 hour at room temperature. Next, the cells were washed and stained with avidin-fluorescein isothiocyanate (FITC) for 15 minutes at 4° C. The efficiency of the two-step cell surface labeling was determined by measuring the fluorescence intensity of the cell lysates.
Jurkat cells were cultured in the presence of […] of peracetylated N-azidoacetylmannosamine (Ac4ManNAz) for 3 days to metabolically introduce N-azidoacetyl-sialic acid (SiaNAz) groups into glycoproteins. As a negative control, Jurkat cells were employed that were grown in the presence of peracetylated N-acetylmannosamine (Ac4ManNAc). The cells were exposed to 30 micromoles of compound 4b, 5b, and 6b for 1 hour at 37° C. In addition, cells and cyclopropenone 5b were exposed to light (350 nm) for 1 minute to form in-situ cyclooctyne 6b and then incubated for 1 hour at 37° C. Next, the cells were washed and stained with avidin-fluorescein isothiocyanate (FITC) for 15 minutes at 4° C. and the efficiency of the two-step cell surface labeling was determined by measuring the fluorescence intensity of the cell lysates.
Jurkat cells were seeded at a density of 75,000 cells mL^−1 in a total volume of 40 mL culture medium in the presence of peracetylated N-azidoacetylmannosamine (Ac4ManNaz; 25 micromolar final concentration) and grown for 3 days, leading to the metabolic incorporation of the corresponding N-azidoacetyl sialic acid (SiaNAz) into their cell surface glycoproteins. Control cells were grown in the presence of peracetylated N-acetylmannosamine (Ac4ManNac; 25 micromolar final concentration) for 3 days. Similarly, CHO cells were grown for 3 days in the presence of Ac4ManNaz (100 micromolar final concentration) or Ac4ManNac (100 micromolar final concentration).
Jurkat cells bearing azides and control cells were washed with labeling buffer (DPBS, pH 7.4 containing 1% FBS and 1% BSA), transferred to round bottom tubes (1×10^6 cells/sample) and incubated with the biotinylated compounds 4b, 5b, or 6b (0-100 micromolar) in labeling buffer for 0-90 minutes at room temperature. To activate 5b in situ, immediately after adding the compound to the cells, the cell suspension was subjected to UV light (350 nm) for 1 minute. The cells were washed three times with cold labeling buffer and then incubated with avidin conjugated with fluorescein (0.5 microgram/ml; Molecular Probes) for 15 minutes at 4° C. Following three washes and cell lysis in passive lysis buffer (Promega), cell lysates were analysed for fluorescence intensity (485 ex/520 em) using a microplate reader (BMG Labtech). Data points were collected in triplicate and are representative of three separate experiments. Fluorescence of Jurkat cell lysates was expressed as fluorescence (arbitrary units; AU) per 800,000 cells.

Jurkat cells [3] = experiment: Measurement of cytotoxicity (trypan blue exclusion, MTT); format: cell-based, Human
Procedure: Cell viability was also examined after incubation with 5b with and without light activation followed by reincubation for 5 hours (see Examples). In both cases, the ability of the cells to reduce MTT to its insoluble formazan salt was […].
Cell viability and cell morphology were assessed by exclusion of trypan blue followed microscopic evaluation immediately after photoactivation or after reincubation of the labeled cells in cell culture medium for 5 hours or overnight. Viability was measured by quantifying the cellular ability to reduce the water-soluble tetrazolium dye 3-4,5-dimethylthiazole-2,5-diphenyl tetrazolium bromide (MTT) to its insoluble formazan salt (e.g., Sgouras et al., J. Mater. Sci.: Materials in Medicine 1990, 1:61-68). Data points were collected in triplicate and expressed as normalized values for control cells (100%).

Jurkat cells [4] = experiment: Western blot analysis of cell surface labeling; format: cell-based, Human; settings: 30 micromolar, 1 hour; 5b in-situ activated
Procedure: To identify the nature of the azide-labeled Jurkat glycoconjugates, cell lysates were analyzed by Western blot analysis (FIG. 8). Jurkat cells grown for 3 days in the presence of Ac4ManNAc or Ac4ManNAz were incubated with compounds in-situ activated 5b or 6b (30 micromolar) and then lysed. The Western blot was probed with an anti-biotin antibody conjugated to horseradish peroxidase (HRP). […] Furthermore, similar patterns of labeling were apparent after incubation with in-situ activated 5b and 6b.
Jurkat cells were harvested by centrifugation (5 minutes at 1,400 rpm) and resuspended as 5×10^6 cells/mL. The cell suspensions (250 microliters per sample) were incubated with biotin-conjugated alkynes 4b, 5b, and 6b (30 micromolar) or without compound as control for 1 hour. To activate 5b in situ, immediately after adding the compound to the cells, the cell suspension was subjected to UV light (350 nm) for 1 minute. The cells were washed (4×10 minutes) with cold DPBS, pH 7.4 containing FBS (1%) and lysed in passive lysis buffer. The cell lysates were clarified by centrifugation at 15,000 rpm for 15 minutes and the total protein content of the clear supernatants was assessed using the bicinchonic acid assay (BCA; Pierce Biotechnology). […]

CHO cells = experiment: Detection of cell labeling by fluorescence microscopy; format: cell-based, Chinese hamster
Procedure: Next, attention was focused on visualizing azido-containing glycoconjugates of living cells by confocal microscopy. Thus, adherent Chinese hamster ovary (CHO) cells were cultured in the presence of Ac4ManNAz (100 μM) for three days. The resulting cell surface azido groups were reacted with in situ generated 6b (30 μM) and then visualized with avidin-Alexa fluor 488.
CHO cells bearing azides and untreated control cells were transferred to glass coverslips and cultured for 36 hours in their original medium. Live CHO cells were treated with the biotinylated compound 5b (30 micromolar) in labeling buffer (DPBS, supplemented with FBS (1%)) for 1 hour at room temperature. To activate 5b in situ, immediately after adding the compound to the cells, the cells were subjected to UV light (350 nm) for 1 minute. Next, the cells were incubated with avidin conjugated with Alexa Fluor 488 (Molecular Probes) for 15 minutes at 4° C. Cells were washed 3 times with labeling buffer and fixed with formaldehyde (3.7% in PBS). The nucleus was labeled with the far red-fluorescent TO-PRO-3 dye (Molecular Probes). The cells were mounted with PermaFluor (Thermo Electron Corporation) before imaging. Initial analysis was performed on a Zeiss Axioplan2 fluorescent microscope. […] The step size, based on the calculated optimum for each objective, was between 0.25 and 0.5 micrometers. […]

[5] = 30 micromolar, 1 hour, room temperature, cells grown with Ac4ManNAz
[6] = 30 micromoles, 1 hour at 37° C., cells grown with Ac4ManNAz

SMILES	Reported rate of the reaction of cyclooctynes with benzyl azide [1]	Cell surface labeling (fluorescence intensity of cell lysates) (Jurkat cells [2]; [5])	Cell surface labeling (fluorescence intensity of cell lysates) (Jurkat cells [2]; [6])	Incubation time at which labeling was reaching completion (Jurkat cells [2]; 30 micromolar)	Glycoprotein labeling on Western blot (anti-biotin-HRP) (Jurkat cells [4])	further results
O=C(O)COC1CCC#CC(F)(F)CC1 (centres unmarked) [2-[(6,6-difluoro-4-cyclooctyn-1-yl)oxy]-acetic acid]	0.076 M⁻¹ s⁻¹					
OC1Cc2ccccc2C#Cc2ccccc21 (centres unmarked) [4a, 11,12-didehydro-5,6-dihydro-dibenzo[a,e]cycloocten-5-ol]	0.17 M⁻¹ s⁻¹					Reported rate of the reaction of cyclooctynes with benzyl azide ([1]; listed as 11,12-didehydro-5,6-dihydro-dibenzo[a,e]cycloocten-5-ol): 0.0568 M⁻¹ s⁻¹
O=C(CCCC[C@@H]1SC[C@@H]2NC(=O)N[C@@H]21)NCCOCCOCCOCCNC(=O)OC1Cc2ccccc2C#Cc2ccccc21 (stereo partly drawn) [4b, 11,12-didehydro-5,6-dihydrodibenzo[a,e]cycloocten-5-yl ester of 19-[(3aS,4S,6aR)-hexahydro-2-oxo-1H-thieno[3,4-d]imidazol-4-yl]-15-oxo-5,8,11-trioxa-2,14-diazanonadecanoic acid, reference compound]		strong labeling	strong labeling	60 min		
CCCCOc1ccc2c(c1)CCc1cc(OCCOCCOC(=O)NCCOCCOCCNC(=O)CCCCC3SCC4NC(=O)NC43)ccc1-c1c-2c1=O (centres unmarked) [5b, 2-{2-[(9-Butoxy-1-oxo-6,7-dihydro-1H-dibenzo[a,e]cyclopropa-[c][8]annulen-4-yl)oxy]ethoxy}ethyl {2-[2-(2-{[5-(2-oxohexahydro-1H-thieno[3,4-d]imidazol-4-yl)pentanoyl]amino}ethoxy)ethoxy]ethyl}carbamate]			strong labeling		Significant glycoprotein labeling was only observed in lysates from cells grown in the presence of Ac4ManNAz	Cell viability and morphology (trypan blue exclusion) (Jurkat cells [3]; 30 micromolar 5b with and without UV light activation (1 minute at 350 nm)): no changes were observed; Ability of the cells to reduce MTT to formazan (Jurkat cells [3]; with and without light activation, reincubation for 5 hours): negligible; Cell surface labeling (fluorescence intensity of cell lysates) (Jurkat cells [2]; in the dark (no activation), 30 micromolar, 1 hour, room temperature): low fluorescence intensities; Cell surface labeling (fluorescence intensity of cell lysates) (Jurkat cells [2]; in the dark (no activation), 1 hour at 37° C.): low fluorescence intensities; Cell surface labeling (fluorescence intensity of cell lysates) (Jurkat cells [2]; in-situ activation, 350 nm 1 minute, then 1 hour at 37° C.): equally efficient cell labeling; Cell surface labeling (fluorescence intensity of cell lysates) (Jurkat cells [2]; in-situ activation, 350 nm 1 minute, then 1 hour at room temperature, 30 micromolar): equally efficient cell labeling; Staining (confocal microscopy, avidin-Alexa fluor 488) (CHO cells; in the dark, cells metabolically labeled with ManNAz): negligible staining
CCCCOc1ccc2c(c1)CCc1cc(OCCOCCOC(=O)NCCOCCOCCNC(=O)CCCCC3SCC4NC(=O)NC43)ccc1C#C2 (centres unmarked) [6b, 2-{2-[(9-Butoxy-5,6-didehydro-11,12-dihydrodibenzo[a,e][8]annulen-2-yl)oxy]ethoxy}ethyl {2-[2-(2-{[5-(2-oxohexahydro-1H-thieno[3,4-d]imidazol-4-yl)pentanoyl]amino}ethoxy)ethoxy]ethyl}carbamate]		strong labeling		60 min	Significant glycoprotein labeling was only observed in lysates from cells grown in the presence of Ac4ManNAz	Fluorescent reading compared with 4b (Jurkat cells [2]; at low concentration): somewhat higher fluorescent reading than 4b; Staining of azido-containing glycoconjugates (confocal microscopy, avidin-Alexa fluor 488) (CHO cells; in situ generated, 30 μM, cells grown with Ac4ManNAz 100 μM): staining was only observed at the cell surface
